Each structure is given as a SMILES string.

Common to all, as to type: cell-based
In experiment [1] the test system is CCRF-CEM cancer cells - leukaemia. Briefly: Fluorometric Microculture Cytotoxicity Assay (FMCA), CCRF-CEM. Conditions: Homo sapiens, 72 h incubation. The source says:
(§1) The Fluorometric Microculture Cytotoxicity Assay, FMCA, is a three day non-clonogenic microplate-based cell viability assay used for measurement of the cytotoxic and/or cytostatic effect of compounds in vitro (Lindhagen, E., et al. Nat Protoc, 2008. 3(8): p. 1364-9). FMCA (Larsson, R. and P. Nygren, Anticancer Res, 1989. 9(4): p. 1111-9) represents a valuable method to measure cytotoxicity in a number of cell types, both cell lines and primary cells from patients (Larsson, R., et al., Int J Cancer, 1992. 50(2): p. 177-85; Fridborg, H., et al., Eur J Cancer, 1999. 35(3): p. 424-32; Dhar, S., et al., Br J Cancer, 1996. 74(6): p. 888-96).
(§2) FMCA is based on the principle that fluorescein diacetate (FDA) is converted to the fluorescent probe fluorescein by esterases in the plasma membranes of living cells. For experiments, 96 or 384-well microplates are prepared with compounds and stored at −70° C. until use. Cells are then seeded into the drug-prepared plates and placed in an incubator for 72 h. On the last day of incubation, the plates are washed and a buffer containing FDA is added and incubated with the cells for 45 minutes. Finally the fluorescence per well is measured in a fluorometer and a Survival Index % (SI) for each compound-treated well is calculated with the equation: Compound-treated cells minus blank divided by control cells minus blank. A high SI-value indicates a large percentage of living cells and vice versa.
In subsequent experiments, compounds were tested, along with kinase inhibitors (dasatinib, pazopanib, sorafenib, and sunitinib) as described above. Initially, the acute lymphoblastic leukaemia cell line CCRF-CEM (see e.g. Foley G E, et al. Cancer 1965, 18, 522-529) was used throughout. In the assay plates, medium was added to six empty wells (blank wells) and wells were filled with PBS and cell suspension and served as control wells. SI-values were then calculated for each compound-treated well as described above. All experiments were conducted twice and a new batch of plates was prepared for each experiment.
For dose-response experiments, 384-well plates were prepared as follows:
(§3) Compounds of the invention as well as kinase inhibitors sorafenib, sunitinib, dasatinib, and pazopanib (reference compounds) were diluted with PBS to a concentration which was ten-times higher than the desired starting concentration. Then, a Biomek 2000 liquid handling system was employed to serially dilute the compounds in a deep-well 384-well plate. From this plate, assay plates containing 5 μl compound per well were prepared with the Biomek 2000. Certain compounds precipitated when diluted with PBS, and these compounds were therefore prepared in a 96-well plate manually as described above using culture medium RPMI 1640 instead of PBS.
(§4) The compounds were also tested at five concentrations, with five times serial dilution on the following cell types: CCRF-CEM, hTERT-RPE1 (normal retinal epithelial cells), hRPTEpiC (normal renal cells) and PBMC (peripheral blood mononuclear cells). Each experiment was performed three times, except for PBMC and hRPTEpiC, which were performed twice. SI-values were calculated, graphs were plotted using GraphPadPrism 5.0 (GraphPad Software Inc. La Jolla, Calif.) and EC50-values for each cell type and compound were determined from the curves.

For the next experiment, the system named is HCT116. Put plainly: FMCA, HCT116 colon cancer. The note with it: Homo sapiens, HCT-116, read-out: EC50 (μM) in various cancer cell lines: HCT116.
Source text: as §1, §2, §3, §4
(§5) The compounds of the invention were also tested on further cancer cell lines related to colon cancer (HCT116; see e.g Brattain M G, et al. Cancer Res. 1981, 41, 1751-1756), breast cancer (MCF7; see e.g. Soule H D, et al. J. Natl. Cancer Inst. 1973, 51, 1409-1416), teniposide-resistant leukaemia (CEM/VM1; see e.g. Danks M K et al. Cancer Res. 1987, 47, 1297-1301), lung cancer (H69; see e.g. Gazdar A F, et al. Cancer Res. 1980, 40, 3502-3507), doxorubicin-resistant lung cancer (H69AR; see e.g. Mirski S E, et al. Cancer Res. 1987, 47, 2594-2598), myeloma (RPMI 8226; see e.g. Matsuoka Y, et al. Proc. Soc. Exp. Biol. Med. 1967, 125, 1246-1250), doxorubicin-resistant myeloma (8226/Dox40; see e.g. Dalton W S et al. Blood 1989, 15,747-752), lymphoma (U-937, see e.g. Sundstrom C, et al. Int. J. Cancer 1976, 17, 565-577), vincristin-resistant lymphoma (U-937-vcr; see e.g. Botling J, et al. Int J Cancer 1994, 15; 58 (2), 269-274), ovarian cancer (A2780; see e.g. Hamilton T C, et al. Semin Oncol. 1984, 11, 285-298), doxorubicin-resistant ovarian cancer (A2780/Adr), cisplatin-resistant ovarian cancer (A2780/Cis; see e.g. Behrens B C, et al. Cancer Res. 1987, 47, 414-418), renal cancer (ACHN; see e.g. Borden E C, et al. Cancer Res. 1982, 42(12), 4948-4953), pancreatic cancer (PANC-1, BxPC-3, and MIA PaCa-2; see e.g. Lieber M, et al. Int. […]

A further experiment relates to MCF7. Briefly: FMCA, MCF7 breast cancer. The note with it: Homo sapiens, read-out: EC50 (μM) in various cancer cell lines: MCF7.
Source text: as §1, §2, §3, §4, §5

Another experiment concerns CEM/VM1. Put plainly: FMCA, CEM/VM1 teniposide-resistant leukaemia. The note with it: Homo sapiens, read-out: EC50 (μM) in various cancer cell lines: CEM/VM1.
Source text: as §1, §2, §3, §4, §5

The next experiment has as its system H69. Briefly: FMCA, H69 lung cancer. The note with it: Homo sapiens, NCI-H69, read-out: EC50 (μM) in various cancer cell lines: H69.
Source text: as §1, §2, §3, §4, §5

In another experiment the test system is H69AR. Briefly: FMCA, H69AR doxorubicin-resistant lung cancer. The note with it: Homo sapiens, read-out: EC50 (μM) in various cancer cell lines: H69 AR.
Source text: as §1, §2, §3, §4, §5

A further experiment has as its system RPMI 8226. Briefly: FMCA, RPMI 8226 myeloma. Conditions: Homo sapiens, read-out: EC50 (μM) in various cancer cell lines: RPMI 8226.
Source text: as §1, §2, §3, §4, §5

In a further experiment the test system is 8226/Dox40. Briefly: FMCA, 8226/Dox40 doxorubicin-resistant myeloma. Conditions: read-out: EC50 (μM) in various cancer cell lines: 8226/Dox40.
Source text: as §1, §2, §3, §4, §5

A further experiment concerns ACHN. Briefly: FMCA, ACHN renal cancer. Conditions: Homo sapiens, read-out: EC50 (μM) in various cancer cell lines: ACHN.
Source text: as §1, §2, §3, §4, §5

Another experiment concerns U-937. Briefly: FMCA, U-937 lymphoma. Conditions: Homo sapiens, read-out: EC50 (μM) in various cancer cell lines: U-937.
Source text: as §1, §2, §3, §4, §5

Another experiment relates to U-937-vcr. Put plainly: FMCA, U-937-vcr vincristin-resistant lymphoma. Conditions: read-out: EC50 (μM) in various cancer cell lines: U-937-ver.
Source text: as §1, §2, §3, §4, §5

For another experiment, the system named is A2780. Put plainly: FMCA, A2780 ovarian cancer. The note with it: Homo sapiens, read-out: EC50 (μM) in various cancer cell lines: A2780.
Source text: as §1, §2, §3, §4, §5

Turning to `COc1ccc2[nH]cc(CCNc3nccc(NCc4ccc5[nH]c(C)cc5c4)n3)c2c1` [Example 64, N^2-[2-(5-methoxy-1H-indol-3-yl)ethyl]-N^4-(2-methyl-1H-indol-5-ylmethyl)pyrimidine-2,4-diamine], the EC50 in [1] came to 50 nM; in the experiment on HCT116, 1.33 µM; in the experiment on MCF7, 2.33 µM; in the experiment on CEM/VM1 it was 0.05 µM; with H69, 4.18 µM; in the experiment on H69AR it was 0.29 µM. The EC50 with RPMI 8226 was 0.23 µM; with 8226/Dox40, 1.19 µM; in the experiment on ACHN, 1.6 µM; with U-937, 0.08 µM; in the experiment with U-937-vcr it was 0.32 µM; in the experiment with A2780 it was 0.29 µM.

As to `COc1ccc2[nH]cc(CCNc3nccc(NCc4ccc5[nH]ncc5c4)n3)c2c1` [Example 66, N^4-(1H-indazol-5-ylmethyl)-N^2-[2-(5-methoxy-1H-indol-3-yl)ethyl]pyrimidine-2,4-diamine], the EC50 worked out at 210 nM in experiment [1]; 2.45 µM in the experiment on HCT116; 3.35 µM in the experiment with MCF7; 0.27 µM with CEM/VM1; 11.6 µM in the experiment with H69; 0.64 µM with H69AR. Further, the EC50 with RPMI 8226 turned out to be 1.83 µM; with 8226/Dox40, 10 µM; in the experiment with ACHN, 3.32 µM; in the experiment with U-937 it was 0.35 µM; with U-937-vcr it was 0.99 µM; with A2780, 0.78 µM.

Take `Cc1cc2cc(Nc3ccnc(NCc4ccc5[nH]cnc5c4)n3)ccc2[nH]1` [Example 67, N^2-(1H-benzo[d]imidazol-5-ylmethyl)-N^4-(2-methyl-1H-indol-5-yl)pyrimidine-2,4-diamine]: the EC50 in experiment [1] amounted to 210 nM; with HCT116, 2.47 µM; with MCF7 it was 12.4 µM; in the experiment on CEM/VM1, 0.33 µM; in the experiment on H69, 37.2 µM; in the experiment with H69AR, 0.71 µM. Besides, the EC50 in the experiment with RPMI 8226 turned out to be 5.01 µM; in the experiment on 8226/Dox40 it was 24.4 µM; in the experiment with ACHN it was 5.43 µM; in the experiment with U-937 it was 0.22 µM; in the experiment on U-937-vcr, 1.74 µM; with A2780 it was 1.37 µM.

Consider `c1cc(Nc2nccc(NCc3ccc4[nH]ccc4c3)n2)c2cn[nH]c2c1` [Example 76, N^4-(1H-indol-5-ylmethyl)-N^2-(1H-indazol-4-yl)pyrimidine-2,4-diamine], for which the EC50 in [1] worked out at 230 nM; with HCT116 it was 3.09 µM; with MCF7, 3.08 µM; in the experiment on CEM/VM1, 0.22 µM; in the experiment on H69 it was 12.7 µM; in the experiment on H69AR, 0.34 µM. The EC50 is 0.7 µM with RPMI 8226; 1.1 µM in the experiment with 8226/Dox40; 1.59 µM with ACHN; 0.19 µM with U-937; 0.4 µM in the experiment with U-937-vcr; 0.34 µM with A2780.

Molecule `c1cc(Nc2ccc3[nH]ccc3c2)nc(NCc2ccc3[nH]ccc3c2)n1` [Example 82, N^2-(1H-indol-5-ylmethyl)-N^4-(1H-indol-5-yl)pyrimidine-2,4-diamine] displayed an EC50 in [1] of 490 nM.

On to `Cc1cc(Nc2ccc3[nH]c(C)cc3c2)nc(NCc2ccc3[nH]ccc3c2)n1` [Example 83, N^2-(1H-indol-5-ylmethyl)-6-methyl-N^4-(2-methyl-1H-indol-5-yl)pyrimidine-2,4-diamine], for which the EC50 in [1] was less than 10000 nM.

In the case of `COc1ccc2[nH]cc(CCNc3nc(C)cc(NCc4ccc5[nH]ccc5c4)n3)c2c1` [Example 84, N^4-(1H-indol-5-ylmethyl)-N^2-[2-(5-methoxy-1H-indol-3-yl)ethyl]-6-methylpyrimidine-2,4-diamine], the EC50 in experiment [1] was determined as 40 nM; in the experiment on HCT116, 1.16 µM; with MCF7 it was 2.06 µM; in the experiment with CEM/VM1 it was 0.19 µM; in the experiment with H69, 5.47 µM; with H69AR, 0.35 µM. Further, the EC50 was found to be 0.45 µM with RPMI 8226; 2.58 µM in the experiment on 8226/Dox40; 1.62 µM with ACHN; 0.21 µM in the experiment with U-937; 0.27 µM in the experiment on U-937-vcr; 0.33 µM in the experiment with A2780.

Turning to `COc1ccc2[nH]cc(CCNc3nc(Cc4ccccc4)cc(NCc4ccc5[nH]ccc5c4)n3)c2c1` [Example 85, N^4-(1H-indol-5-ylmethyl)-6-benzyl-N^2-[2-(5-methoxy-1H-indol-3-yl)ethyl]pyrimidine-2,4-diamine], the EC50 in [1] is less than 10000 nM.

The molecule `c1cc(Nc2ccc3[nH]cnc3c2)nc(NCc2ccc3[nH]ccc3c2)n1` [Example 95, N^2-(1H-indol-5-ylmethyl)-N^4-(1H-benzo[d]imidazol-5-yl)pyrimidine-2,4-diamine] gave an EC50 in experiment [1] of 900 nM.

Turning to `Cc1nc2cc(Nc3ccnc(NCc4ccc5[nH]ccc5c4)n3)ccc2[nH]1` [Example 96, N^2-(1H-indol-5-ylmethyl)-N^4-(2-methyl-1H-benzo[d]imidazol-5-yl)pyrimidine-2,4-diamine], the EC50 in experiment [1] was found to be 680 nM.

In [1], `CNC(=O)c1cc(Oc2ccc(NC(=O)Nc3ccc(Cl)c(C(F)(F)F)c3)cc2)ccn1` [Ref. 1, sorafenib, reference compound] returned an EC50 of 8300 nM.

For the molecule `CCN(CC)CCNC(=O)c1c(C)[nH]c(/C=C2\C(=O)Nc3ccc(F)cc32)c1C` [Ref. 2, sunitinib, reference compound], in experiment [1], the EC50 came out at 14100 nM.

In turn, `Cc1nc(Nc2ncc(C(=O)Nc3c(C)cccc3Cl)s2)cc(N2CCN(CCO)CC2)n1` [Ref. 3, dasatinib, reference compound] displayed an EC50 in experiment [1] of 9700 nM.

For the origin of these results see US8927547B2, “Pyrimidine derivatives” (Noviga Research AB, priority 2010, dated 2015).
